Tests used:
[1] = biological target: GABAa receptor; test: GABAa receptor binding assay, displacement of 3H-RO15-1788 [3H-Flumazenil] in rat cortical tissue; details: 0.5 nM 3H-RO15-1788 [3H-Flumazenil], 30 min at 4° C., pH 7.4
Method: The pharmaceutical utility of compounds of this invention are indicated by the following assay for GABAa receptor activity.
Assays are carried out as described in Thomas and Tallman (J. Bio. Chem. 156: 9838-9842, J. Neurosci. 3:433-440, 1983). Rat cortical tissue is dissected and homogenized in 25 volumes (w/v) of 0.05M Tris HCl buffer (pH 7.4 at 4° C.). The tissue homogenate is centrifuged in cold (4°) at 20,000×g for 20'. The supernatant is decanted and the pellet is rehomogenized in the same volume of buffer and again centrifuged at 20,000×g. The supernatant is decanted and the pellet is frozen at -20° C. overnight. The pellet is then thawed and rehomogenized in 25 volume (original wt/vol) of buffer and the procedure is carried out twice. The pellet is finally resuspended in 50 volumes (w/vol of 0.05M Tris HCl buffer (pH 7.4 at […]).
Incubations contain […] of radioligand 0.5 nM (^3 H-RO15-1788 [^3 H-Flumazenil] specific activity 80 Ci/mmol), drug or blocker and buffer to a total volume of […]. Incubations are carried for 30 min at 4° C. then are rapidly filtered through GFB filters to separate free and bound ligand. Filters are washed twice with fresh 0.05M Tris HCl buffer (pH 7.4 at 4° C.) and counted in a liquid scintillation counter. […] diazepam is added to some tubes to determine nonspecific binding. Data are collected in triplicate determinations, averaged and % inhibition of total specific binding is calculated. Total Specific Binding=Total-Nonspecific. In some cases, the amounts of unlabeled drugs is varied and total displacement curves of binding are carried out. Data are converted to a form for the calculation of IC50 and Hill Coefficient (nH).

[2] = test system: clonazepam-sensitive benzodiazepine binding site; details: cited from earlier work

Row | Compound | IC50 [1] | block of enhancement of benzodiazepine binding by GABA agonists [2]
1 | O=c1[nH]c2ccncc2c2nc(-c3ccccc3)cn12 [Compound 2, 2-Phenyl-imidazo[1,2-c]pyrido[3,4-e]pyrimidin-5(6H)-one] | 169 nM | –
2 | CN1CCc2cc3c(cc2[C@H]1[C@@H]1OC(=O)c2c1ccc1c2OCO1)OCO3 [(+) bicuculline] | – | blocked
3 | CN1CCc2cc3c(cc2[C@@H]1[C@H]1OC(=O)c2c1ccc1c2OCO1)OCO3 [(-) bicuculline] | – | much less active
4 | O=c1[nH]c2ccncc2c2nc(-c3ccccc3F)cn12 [Compound 1, 2-(2-Fluorophenyl)-imidazol[1,2-c]pyrido[3,4-e]pyrimidin-5(6H)-one] | 42 nM | –
5 | O=c1[nH]c2cccnc2c2nc(-c3ccccc3)cn12 [Compound 15, 2-Phenylimidazo[1,2-c]pyrido[2,3-e]pyrimidin-5(6H)-one] | 132 nM | –
